Test results published in PubChem BioAssay AID179 (DTP/NCI, 2004).
The source made the active and inactive calls.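 How the source made its calls: active means compounds giving half or more protection of infected cells from virus-caused growth loss, again on retest; inactive means the rest.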

Test system: CEM cells HIV-1 protection, formazan growth assay
Assay: NCI AIDS Antiviral Assay
Settings: for IC50: measured here: growth of uninfected CEM cells
In short: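 Human CEM cells, uninfected and HIV-1-infected, exposed to five drug concentrations; growth measured by soluble formazan assay and scored as percent protection from infection, with protecting compounds retested.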

O=C(O)C1Cc2c([nH]c3ccccc23)C=N1 (centres undefined)
outcome: inactive

O=P1(O)c2ccccc2-c2ccccc21
EC50: > 200 µM
IC50: > 200 µM

Cc1cc(Cl)ccc1NC(=O)C(=O)C(C(=O)c1ccccc1)C1OC(=O)c2ccccc21 (centres undefined)
EC50: > 562 µM
IC50: 302 µM

CC(Oc1ccc(Oc2cnc3ccc(Cl)cc3n2)cc1)C(=O)O (centres undefined)
EC50: > 141 µM
IC50: 17.4 µM

COc1ccc([P+](Cc2ccccc2)(c2ccccc2)c2ccc3ccccc3c2)cc1 (centres undefined)
EC50: > 200 µM
IC50: 0.794 µM

Cc1nc(Nc2ccccc2[N+](=O)[O-])sc1C(=O)CC(=O)C(=O)Nc1c(C(C)C)cccc1C(C)C
EC50: > 200 µM
IC50: > 200 µM

CCOC(=O)C1/C(=N/N)CN2CCc3c([nH]c4ccccc34)C12C(=O)OCC (centres undefined)
EC50: > 158 µM
IC50: 145 µM

O=c1[nH]c2c3ccccc3ccc2c2cc3c(cc12)OCO3
outcome: inactive

CCCCCCCCCCCCOC1OC(COC(C)=O)C(OC(C)=O)C(OC(C)=O)C1OC(C)=O (centres undefined) (tested in a mixture with another compound)
EC50: > 38 µM
IC50: 24 µM

COc1cc([N+](=O)[O-])c(S(=O)(=O)O)cc1NS(=O)(=O)c1ccc(C)cc1
EC50: > 200 µM
IC50: > 200 µM

CCCCCCCNC(C)(C)C(SSSC(c1ccc(Cl)cc1)C(C)(C)NCCCCCCC)c1ccc(Cl)cc1 (centres undefined)
EC50: > 100 µM
IC50: > 100 µM

O=C(Nc1c(Cl)cc([N+](=O)[O-])cc1Cl)C(=O)C(C(=O)c1ccncc1)C1OC(=O)c2ccccc21 (centres undefined)
outcome: inactive

CCc1c(N=[N+]=[N-])c2ccccc2oc1=O
outcome: inactive

COc1cc2cc(C(=O)N3CC(CCl)c4c3cc(NC(=O)C(C)Nc3c([N+](=O)[O-])cc(C(=O)NCCN(C)C)cc3[N+](=O)[O-])c3ccccc43)[nH]c2c(OC)c1OC (centres undefined)
EC50: > 0.1 µM
IC50: 0.0575 µM

O=C(CN1C(=O)c2ccccc2C1=O)OCC1CCCN2CCCCC12 (centres undefined)
EC50: > 200 µM
IC50: > 200 µM

C[Si](C)(C)OC1c2[nH]c3ccccc3c2CN2C(=O)CCC12 (centres undefined)
EC50: > 200 µM
IC50: > 200 µM

COC1=C(C)C(=O)c2nccc(C)c2C1=O
outcome: inactive

CC(C)=CCC[C@@H](C)C1=C(O)C(Nc2ccccc2Br)=C(C)C(=O)C1=O
EC50: > 100 µM
IC50: 8.13 µM

Nc1nc(N)c(NC(=O)CCCO)c(=O)[nH]1
EC50: > 200 µM
IC50: > 200 µM

O=P(NC1CCCCC1)(NC1CCCCC1)NC1CCCCC1
EC50: > 200 µM
IC50: > 200 µM

CCCCNC(=NCc1ccccc1)NC#N
EC50: > 407 µM
IC50: 295 µM

CO[C@H](c1ccccc1)[C@H](C)N(C)c1ccc2ccccc2c1C1=NC(C)(C)CO1
EC50: > 64.6 µM
IC50: > 64.6 µM

N[C@@H](Cc1ccc(O)c(O)c1)C(=O)O
EC50: > 200 µM
IC50: 51.3 µM

CC(=O)N1CC2(CN(C(C)=O)CC3(C1)OCCO3)OCCO2
EC50: > 200 µM
IC50: > 200 µM

CC(=O)c1ccc2c(c1)CC1(C2)Cc2cc3c(c(C(=O)O)c2C1)CCC3 (centres undefined)
EC50: > 200 µM
IC50: 61.7 µM

O=C1Oc2ccccc2C(=O)/C1=C/N1C(=O)/C(=C/c2ccc([N+](=O)[O-])cc2)SC1=S
EC50: > 200 µM
IC50: 1.1 µM

O=C(Nn1c(-c2ccccc2)nc2ccccc2c1=O)c1ccc(Cl)cc1
EC50: > 200 µM
IC50: 120 µM

C=CCC12CC(O)C(O)CC1(OC)OC(c1cc(OC)c(OC)c(OC)c1)C2C (centres undefined)
EC50: > 200 µM
IC50: 129 µM

CCCc1cc(=O)oc2c3c(c4c(c12)OC(C)(C)CC4)O[C@H](C)[C@@H](C)[C@H]3O
EC50: > 200 µM
IC50: 10.7 µM

COc1ccc(C2=Nn3c(nc4sc(C)c(C)c4c3=O)SC2)cc1
EC50: > 200 µM
IC50: > 200 µM

CC1(C)C(=O)N(O)C(C)(C)N1N=O
EC50: > 200 µM
IC50: > 200 µM

S=C(Nc1ccccn1)Nc1ccccc1Cl
EC50: > 200 µM
IC50: 123 µM

COc1ccc(C2SC(N)=Nc3c2c(C)nn3C(=O)c2ccc(Cl)cc2)cc1 (centres undefined)
EC50: > 200 µM
IC50: 151 µM

COc1ccc2c(c1)C(=O)CC(c1ccccc1OC)O2 (centres undefined)
EC50: > 200 µM
IC50: 34.7 µM

NC(=O)NN=C1C[C@H]2CCCC[C@H]2C1
outcome: inactive

O=C(Nc1ccc(-c2ccco2)oc1=O)c1ccccc1
EC50: > 200 µM
IC50: > 200 µM

Cc1c([C@H](C)[C@@H]2NC[C@@H](C)C[C@H]2O)ccc2c1C[C@H]1[C@H]2CC=C2C[C@@H](O)CC[C@@]21C
EC50: > 1.82 µM
IC50: > 1.82 µM

CCOC(=O)COc1ccc(S(=O)(=O)c2ccc(OCC(=O)OCC)cc2)cc1
EC50: > 200 µM
IC50: > 200 µM

CCOC(=O)C(O)(NC(C)=O)C(F)(F)F (centres undefined)
EC50: > 200 µM
IC50: > 200 µM

CCOC(=O)CC(=Nc1cc(C)on1)N(CC)CC
EC50: > 676 µM
IC50: > 676 µM

NC(=O)NCCC[C@H](NC(=O)[C@H](CS)NC(=O)[C@@H](N)Cc1cnc[nH]1)C(=O)N[C@H](Cc1ccccc1)C(=O)N[C@@H](Cc1c[nH]c2ccccc12)C(=O)N[C@@H](Cc1c[nH]c2ccccc12)C(N)=O
EC50: > 200 µM
IC50: > 200 µM

N#Cc1c(N)n(-c2cccc(C(=O)O)c2)c(=O)c2cc([N+](=O)[O-])ccc12
EC50: > 200 µM
IC50: > 200 µM

CCP(=O)(CC)C(Cl)Cl
EC50: > 200 µM
IC50: > 200 µM

N#CC(C#N)=C1NC(=O)CC(=O)N1
outcome: inactive

O=c1oc2cc(O)ccc2c(O)c1C(c1ccc(C(c2c(O)c3ccc(O)cc3oc2=O)c2c(O)c3ccc(O)cc3oc2=O)cc1)c1c(O)c2ccc(O)cc2oc1=O
EC50: > 200 µM
IC50: 91.2 µM

COc1cccc2c(=O)c3ccccc3oc12
EC50: > 200 µM
IC50: > 200 µM

[Cu+2].[Cu+2].[Cu+2].[Cu+2].[O-]CCN(CC[OH2+])CC[OH2+].[O-]CCN(CC[OH2+])CC[OH2+].[O-]CCN(CC[OH2+])CC[OH2+].[O-]CCN(CC[OH2+])CC[OH2+]
EC50: > 200 µM
IC50: 4.79 µM

CC1CN=C(Cc2ccc(NC(=O)c3ccc(C(=O)Nc4ccc(CC5=NCC(C)N5)cc4)cc3)cc2)N1 (centres undefined)
EC50: > 200 µM
IC50: 110 µM

CCCC(CCC)C(=O)[O-].CCCC(CCC)C(=O)[O-].CCCC(CCC)C(=O)[O-].CCCC(CCC)C(=O)[O-].[Cu+2].[Cu+2]
EC50: > 50.1 µM
IC50: 7.41 µM

COC(=O)[C@@H]1N2C(=O)C=NO[C@H]2SC1(C)C
EC50: > 1020 µM
IC50: > 1020 µM

COC(=O)[C@@]1(C)C(=O)CC[C@@H]1C=O
EC50: > 251 µM
IC50: 50.1 µM

O=P(c1ccccc1)(c1ccccc1)C1CC=C2CCCCCC2C1 (centres undefined)
EC50: > 5.37 µM
IC50: > 5.37 µM

O=C1/C(=C/c2ccccc2)CN(C(=O)C(Cl)(Cl)Cl)C/C1=C\c1ccccc1
outcome: inactive

O=S(=O)(O)c1ccc(-c2nnc(-c3ccccn3)nc2-c2ccc(S(=O)(=O)O)o2)o1
EC50: > 200 µM
IC50: > 200 µM

O=C(O)C1CC2=C(CN1)Cc1ccccc12 (centres undefined)
EC50: > 9.33 µM
IC50: > 9.33 µM

Cc1cc2c(nn1)CCc1c-2no[n+]1[O-]
EC50: > 200 µM
IC50: 174 µM

CC(C#N)(CCC(=O)O)N=NC(C)(C#N)CCC(=O)O (centres undefined)
EC50: > 891 µM
IC50: > 891 µM

CCOC(=O)c1[nH]n(-c2ccccc2)c(=O)c1/C=N/C(N)=S
EC50: > 200 µM
IC50: > 200 µM

CN(C)C=Nc1ccc2c3c(cccc13)-c1ccccc1-2
EC50: > 200 µM
IC50: 14.1 µM

NC1=NCCC1(c1ccccc1)c1ccccn1 (centres undefined)
EC50: > 550 µM
IC50: 490 µM

O=[N+]([O-])c1nccn1CC(O)c1ccc(F)cc1 (centres undefined)
EC50: > 1000 µM
IC50: > 1000 µM

CCCC(C(=O)OC)C(=O)C(C)c1nc2n(c1O)C(=N)N=N2 (centres undefined)
EC50: > 200 µM
IC50: > 200 µM

C[C@@H](c1ccccc1)N1CN(C(=O)OCc2ccccc2)C(C)(C)CC1=O
EC50: > 200 µM
IC50: 191 µM

O=c1oc2ccccc2c2nc3ccc(Cl)cc3cc12
EC50: > 200 µM
IC50: 5.13 µM

C=C1C[C@@H]2C[C@@H](C)CC(O)[C@]2(CCCNC(=O)CCOCc2ccccc2)C1O (some centres undefined)
outcome: inactive

N#CSCC(Cl)=CCl (mixture of isomers)
EC50: > 200 µM
IC50: 49 µM

C[CH2][Pb]([CH2]C)([CH2]C)[O]C(=O)COc1ccc(Cl)cc1Cl
EC50: > 2 µM
IC50: 0.575 µM

CCOC(=O)CCC1(C)OC[C@H]2OC(n3cc(C)c(=O)[nH]c3=O)C[C@H]2N1O (some centres undefined)
EC50: > 200 µM
IC50: > 200 µM

O=C(Cn1c2ccc(Br)cc2c2nc3ccccc3nc21)N/N=C/c1ccccc1
EC50: > 100 µM
IC50: > 100 µM

CC(=O)NCCc1c(-c2[nH]c3ccccc3c2CCNC(C)=O)[nH]c2ccccc12
EC50: 51.3 µM
IC50: 107 µM

CCOC(=O)c1c(C)cc(C)nc1[S][Sn]([Br])([Br])[S]c1nc(C)cc(C)c1C(=O)OCC
EC50: 40.7 µM
IC50: 51.3 µM

O=C(O)c1nc2ccc(Cl)cc2[nH]c1=O
outcome: inactive

CCC1(CCCC=C(c2cc(Cl)c(OC)c(CO)c2)c2cc(Cl)c(OC)c(CO)c2)OCCO1
EC50: > 200 µM
IC50: 11.7 µM

COc1cccc2c(SCC(=O)Nc3ccccc3-c3ccccc3NC(=O)CSc3c4ccccc4nc4c(OC)cccc34)c3ccccc3nc12
outcome: inactive

O=c1[nH]c2ccc([As](=O)(O)O)cc2[nH]1
EC50: > 200 µM
IC50: > 200 µM

CCS1=C(C(C)=O)C(=O)O[C@H](C)C1 (some centres undefined)
EC50: > 1230 µM
IC50: > 1230 µM

CC(C)(C)OC(=O)NC(CSCc1ccc(C(=O)c2ccccc2)cc1)C(=O)N1CCN(CCCCN2c3ccccc3Sc3cc(N=[N+]=[N-])ccc32)CC1 (centres undefined)
EC50: > 200 µM
IC50: > 200 µM

N#Cc1[nH]c(=O)n(-c2ccc(Cl)cc2)c1N
EC50: > 200 µM
IC50: > 200 µM

C=CCN(c1cc(OC)c2[nH]c(C(=O)O)c(C)c2c1[N+](=O)[O-])S(C)(=O)=O
EC50: > 200 µM
IC50: > 200 µM

C/C(=N/OC(=O)N(C)C)c1cccs1
EC50: > 200 µM
IC50: > 200 µM

CCCCC(C=O)(C=C=C(C)C)CC (centres undefined)
EC50: > 339 µM
IC50: 34.7 µM

COC(=O)C1=C(C)N2CCOC2(C)C(C(=O)OC)C1c1ccc[nH]1 (centres undefined)
EC50: > 200 µM
IC50: > 200 µM

Brc1cn2[n+](c1)[B-]n1cc(Br)c[n+]1[B-]2
EC50: > 200 µM
IC50: 138 µM

NC(CSS(=O)(=O)O)=NCCCCC1CCCCC1
EC50: > 200 µM
IC50: 30.9 µM

O=Nc1c(O)c2ccccc2[nH]c1=O
EC50: > 200 µM
IC50: 45.7 µM
